Source: US6355799B1, “Substituted benzene compounds, process for their preparation, and herbicidal and defoliant compositions containing them” (ISK Americas Incorporated, priority 1997, dated 2002)

Tests used:
Type in all cases: in vivo
[1] = system: field corn (Zea mays L., var. Dekalb 535, CORN); experiment: Pre-emerge test, crop safety; conditions: pre-emerge, 14 days after application, scale 0-100
How it was run: (§1)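 Herbicidal damage is scored 0 (none) to 100 (complete plant death) two weeks after a simulated field spray. Rates span 15–1000 g ai/ha, delivered in acetone at 187 l/ha. For post-emergence treatments, plants have 2–3 leaves and the spray carries 0.25% v/v non-ionic surfactant.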

[2] = system: upland rice (Oryza sp., var. Tebonnet, RICE); experiment: Pre-emerge test, crop safety; conditions: pre-emerge, 14 days after application, scale 0-100
How it was run: as §1

[3] = system: redroot pigweed (Amaranthus retroflexus, AMARE); experiment: Pre-emerge test, greenhouse herbicide activity screening; conditions: pre-emerge, 14 days after application, scale 0-100
How it was run: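 Visual ratings on a 0-100 scale (0 no damage, 100 all plants dead) were taken at 14 days after treatment. Rates of 15-1000 g ai/ha in acetone, 187 l/ha, were sprayed onto soil one day after planting (pre-emerge) or onto 2-3 leaf plants with 0.25% v/v surfactant (post-emerge).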

[4] = system: field corn (Zea mays L., var. Dekalb 535, CORN); experiment: Post-emerge test, crop safety; conditions: post-emerge, 14 days after application, rating scale 0-100
How it was run: (§2)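 Compounds in acetone were track-sprayed at 187 l/ha, 15–1000 g ai/ha, onto sandy loam pots. Pre-emerge seeds were sown one day before spraying, with surface watering afterwards. Post-emerge plants were at the 2–3 leaf stage and sprayed with 0.25% v/v non-ionic surfactant. Injury was rated 0–100 at 14 days.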

[5] = system: upland rice (Oryza sp., var. Tebonnet, RICE); experiment: Post-emerge test, crop safety; conditions: post-emerge, 14 days after application, rating scale 0-100
How it was run: as §2

[6] = system: lambsquarters (Chenopodium album, CHEAL); experiment: Post-emerge test, greenhouse herbicide activity screening; conditions: post-emerge, 14 days after application, rating scale 0-100
How it was run: (§3)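 Rating: 0–100 visual injury, 14 DAA. Application: acetone, 187 l/ha, 15–1000 g ai/ha, flat-fan track sprayer with nozzle 40–45 cm above soil or canopy. Post-emerge runs used 0.25% v/v surfactant on 2–3 leaf plants.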

[7] = system: large crabgrass (Digitaria sanguinalis, DIGSA); experiment: as above; conditions: post-emerge, 14 days after application, rating scale 0-100
How it was run: as §3

[8] = system: redroot pigweed (Amaranthus retroflexus, AMARE); experiment: as above; conditions: post-emerge, 14 days after application, rating scale 0-100
How it was run: as §3

[9] = system: sicklepod (Cassia obtusifolia, CASOB); experiment: as above; conditions: post-emerge, 14 days after application, rating scale 0-100
How it was run: as §3

[10] = system: green foxtail (Setaria viridis, SETVI); experiment: as above; conditions: post-emerge, 14 days after application, rating scale 0-100
How it was run: as §3

[11] = system: barnyardgrass (Echinochloa crus-galli, ECHCG); experiment: as above; conditions: post-emerge, 14 days after application, rating scale 0-100
How it was run: as §3

[12] = system: ivyleaf morningglory (Ipomoea hederacea, IPOHE); experiment: as above; conditions: post-emerge, 14 days after application, rating scale 0-100
How it was run: as §3

[13] = system: velvetleaf (Abutilon theophrasti, ABUTH); experiment: as above; conditions: post-emerge, 14 days after application, rating scale 0-100
How it was run: as §3

[14] = system: johnsongrass (Sorghum halepense, SORHA); experiment: as above; conditions: post-emerge, 14 days after application, rating scale 0-100
How it was run: as §3

[15] = system: lambsquarters (Chenopodium album, CHEAL); experiment: Pre-emerge test, greenhouse herbicide activity screening; conditions: pre-emerge, 14 days after application, scale 0-100
How it was run: as §2

[16] = system: large crabgrass (Digitaria sanguinalis, DIGSA); experiment: as above; conditions: pre-emerge, 14 days after application, scale 0-100
How it was run: as §2

[17] = system: sicklepod (Cassia obtusifolia, CASOB); experiment: as above; conditions: pre-emerge, 14 days after application, scale 0-100
How it was run: as §2

[18] = system: green foxtail (Setaria viridis, SETVI); experiment: as above; conditions: pre-emerge, 14 days after application, scale 0-100
How it was run: as §2

[19] = system: barnyardgrass (Echinochloa crus-galli, ECHCG); experiment: as above; conditions: pre-emerge, 14 days after application, scale 0-100
How it was run: as §2

[20] = system: ivyleaf morningglory (Ipomoea hederacea, IPOHE); experiment: as above; conditions: pre-emerge, 14 days after application, scale 0-100
How it was run: as §2

[21] = system: velvetleaf (Abutilon theophrasti, ABUTH); experiment: as above; conditions: pre-emerge, 14 days after application, scale 0-100
How it was run: as §2

[22] = system: johnsongrass (Sorghum halepense, SORHA); experiment: as above; conditions: pre-emerge, 14 days after application, scale 0-100
How it was run: as §2

## COc1c(Br)cc(F)c(-n2c(=O)cc(C(F)(F)F)n(C)c2=O)c1NC(=O)C=Cc1ccccc1 [2-175]
[1]; 63 g ai/ha
  phytotoxicity rating CORN (crop damage): 0
[1]; 250 g ai/ha
  phytotoxicity rating CORN (crop damage): 0
[2]; 63 g ai/ha
  phytotoxicity rating RICE (crop damage): 20
[2]; 250 g ai/ha
  phytotoxicity rating RICE (crop damage): 40
[3]; 63 g ai/ha
  phytotoxicity rating AMARE: 100
[3]; 250 g ai/ha
  phytotoxicity rating AMARE: 100
[4]; 63 g ai/ha
  CORN phytotoxicity rating (crop damage): 10
[4]; 250 g ai/ha
  CORN phytotoxicity rating (crop damage): 10
[5]; 63 g ai/ha
  RICE phytotoxicity rating (crop damage): 50
[5]; 250 g ai/ha
  RICE phytotoxicity rating (crop damage): 80
[6]; 63 g ai/ha
  CHEAL phytotoxicity rating: 100
[6]; 250 g ai/ha
  CHEAL phytotoxicity rating: 100
[7]; 63 g ai/ha
  DIGSA phytotoxicity rating: 0
[7]; 250 g ai/ha
  DIGSA phytotoxicity rating: 10
[8]; 63 g ai/ha
  AMARE phytotoxicity rating: 100
[8]; 250 g ai/ha
  AMARE phytotoxicity rating: 100
[9]; 63 g ai/ha
  CASOB phytotoxicity rating: 100
[9]; 250 g ai/ha
  CASOB phytotoxicity rating: 100
[10]; 63 g ai/ha
  SETVI phytotoxicity rating: 0
[10]; 250 g ai/ha
  SETVI phytotoxicity rating: 20
[11]; 63 g ai/ha
  ECHCG phytotoxicity rating: 0
[11]; 250 g ai/ha
  ECHCG phytotoxicity rating: 20
[12]; 63 g ai/ha
  IPOHE phytotoxicity rating: 100
[12]; 250 g ai/ha
  IPOHE phytotoxicity rating: 100
[13]; 63 g ai/ha
  ABUTH phytotoxicity rating: 100
[13]; 250 g ai/ha
  ABUTH phytotoxicity rating: 100
[14]; 63 g ai/ha
  SORHA phytotoxicity rating: 0
[14]; 250 g ai/ha
  SORHA phytotoxicity rating: 10
[15]; 63 g ai/ha
  phytotoxicity rating CHEAL: 100
[15]; 250 g ai/ha
  phytotoxicity rating CHEAL: 100
[16]; 63 g ai/ha
  phytotoxicity rating DIGSA: 0
[16]; 250 g ai/ha
  phytotoxicity rating DIGSA: 60
[17]; 63 g ai/ha
  phytotoxicity rating CASOB: 30
[17]; 250 g ai/ha
  phytotoxicity rating CASOB: 30
[18]; 63 g ai/ha
  phytotoxicity rating SETVI: 0
[18]; 250 g ai/ha
  phytotoxicity rating SETVI: 60
[19]; 63 g ai/ha
  phytotoxicity rating ECHCG: 0
[19]; 250 g ai/ha
  phytotoxicity rating ECHCG: 40
[20]; 63 g ai/ha
  phytotoxicity rating IPOHE: 70
[20]; 250 g ai/ha
  phytotoxicity rating IPOHE: 50
[21]; 63 g ai/ha
  phytotoxicity rating ABUTH: 100
[21]; 250 g ai/ha
  phytotoxicity rating ABUTH: 100
[22]; 63 g ai/ha
  phytotoxicity rating SORHA: 0
[22]; 250 g ai/ha
  phytotoxicity rating SORHA: 30
